{
  "source": "patent US10787483B2",
  "about": "“Antimicrobial peptidomimetics” (Agency for Science, Technology and Research, priority 2014, dated 2020)",
  "note": "Square brackets hold non-standard residues; d marks the D form. Peptide text beside a SMILES is read from it. * marks the point of attachment. ξ: configuration not given here. Phe(4-guanidino) = N=C(N)Nc1ccc(C[C@H](N)C(=O)O)cc1; Bip = N[C@@H](Cc1ccc(-c2ccccc2)cc1)C(=O)O; ξpGlu = O=C1CCC(C(=O)O)N1; Agmatine = N=C(N)NCCCCN*; Orn = NCCC[C@H](N)C(=O)O",
  "data": [
    {"system": "MRSA (ATCC 33591)", "experiment": "MIC determination by broth microdilution vs. MRSA (ATCC 33591)", "assay_type": "cell-based, Staphylococcus aureus", "conditions": "Staphylococcus aureus", "protocol": "(§1) Using a sterile loop, 3 to 5 isolated colonies of bacteria of the same morphological appearance are selected from the overnight agar plate. The colonies are transferred into a conical flask containing 5 mL of liquid medium (i.e. Mueller-Hinton broth). The broth is incubated at 37° C. in a shaker at 220 rpm until it reaches a turbidity that is equal to the turbidity of a McFarland Standard 0.5 (correspond to 1×10^8 cfu/mL). This culture growth step will require 1-2 hours depending on the bacteria tested.\n(§2) During this pause period, an antibacterial dilution is prepared. Therefore an antibacterial stock solution is diluted in Mueller-Hinton broth. The concentration of DMSO is kept at 5%. 100 μL of the antibacterial solution are dispensed into the first well of a row. 50 μL of medium containing 0.5% of DMSO are dispensed to the rest of the wells. A 2-fold serial dilution is achieved by transferring 50 μL from the first well (containing the highest concentration of antibacterial) into the second well, and continuing like this until the 10th well in the row. The final 50 μL are discarded so that every well has 50 μL of each antibacterial dilution.\n(§3) The 11th well was used as the growth control well (medium with bacterial inoculums, no antibacterial) while the 12th well was the sterility control well (medium only).\n(§4) The bacterial suspension prepared above is mixed thoroughly, and diluted by a factor of 1:100 in the sterile medium. Each well and the growth control well is inoculated with 50 μL of the bacterial suspension. […] To the sterility control well 50 μL of sterile medium are added in place of the bacterial suspension. 10 μL aliquot from the growth control well is removed immediately after inoculating the plate and pipetted it into a sterile Eppendorf tube holding 990 μL of sterile broth. It is mixed well by vortexing. This suspension is further diluted (1:10) by pipetting 100 μL into 900 μL of sterile broth and mixing it well. 100 μL of each of the two dilutions are plated onto two different antibacterial-free agar plates. A sterile cell spreader is used to spread the liquid. Then the plate is sealed with a transparent adhesive film. The microtiter plate and agar plates are incubated at 37° C. for 16-20 hours or until satisfactory growth is obtained. The colonies on the agar plate are counted the next day to verify that the right number of cfu was inoculated. The plate is agitated in the SpectraMax spectrophotometer for 90 s and the OD600 for all the wells in the plate is recorded.", "units": {"MIC": "µM"}, "values": [
      {"smiles": "N=C(N)NCCCCNC(=O)CN(Cc1ccc(-c2ccccc2)cc1)C(=O)[C@H](CCCNC(=N)N)NC(=O)[C@@H](N)Cc1ccc(-c2ccccc2)cc1", "note": "[Compound 10]", "MIC": 3.12},
      {"smiles": "N=C(N)NCCCCNC(=O)CN(Cc1ccc(-c2ccccc2)cc1)C(=O)[C@@H](CCCNC(=N)N)NC(=O)[C@H](N)Cc1ccc(-c2ccccc2)cc1", "note": "[Compound 11]", "MIC": 12.5}
    ]},
    {"system": "MRSA (ATCC 33591)", "experiment": "MIC determination by broth microdilution vs. MRSA (ATCC 33591)", "assay_type": "cell-based, Staphylococcus aureus", "conditions": "Staphylococcus aureus; MRSA (ATCC 33591); read-out: MIC", "protocol": "as §1, §2, §3, §4", "units": {"MIC": "µM"}, "values": [
      {"smiles": "N=C(N)NCCCCNC(=O)[C@H](Cc1ccc(-c2ccccc2)cc1)NC(=O)[C@@H](CCCNC(=N)N)NC(=O)[C@@H](N)Cc1ccc(-c2ccccc2)cc1", "note": "[Compound 3]", "MIC": 25},
      {"smiles": "N=C(N)NCCCCNC(=O)[C@H](Cc1ccc(-c2ccccc2)cc1)NC(=O)[C@H](CCCNC(=N)N)NC[C@@H](N)Cc1ccc(-c2ccccc2)cc1", "note": "[Compound 29]", "MIC": 3.12},
      {"smiles": "CCCCCCCCCC(=O)N[C@@H](Cc1ccc(-c2ccccc2)cc1)C(=O)N[C@@H](CCCNC(=N)N)C(=O)N[C@@H](Cc1ccc(-c2ccccc2)cc1)C(=O)NCCCCNC(=N)N", "note": "[Compound 25]", "MIC": 12.5},
      {"smiles": "N=C(N)NCCCCNC(=O)[C@H](Cc1ccc(-c2ccccc2)cc1)NC(=O)[C@H](CCCCNC(=N)N)NC(=O)[C@@H](N)Cc1ccc(-c2ccccc2)cc1", "note": "[Compound 19]", "MIC": 6.25},
      {"smiles": "N=C(N)NCCCCNC(=O)[C@H](Cc1ccc(-c2ccccc2)cc1)NC(=O)[C@H](CCCNC(=N)N)NC(=O)[C@@H](N)Cc1ccc(Cl)cc1", "note": "[Compound 22]", "MIC": 25},
      {"smiles": "N=C(N)NCCCCNC[C@H](Cc1ccc(-c2ccccc2)cc1)NC(=O)[C@H](CCCNC(=N)N)NC(=O)[C@@H](N)Cc1ccc(-c2ccccc2)cc1", "note": "[Compound 27]", "MIC": 6.25},
      {"smiles": "N=C(N)NCCC[C@H](NC(=O)[C@@H](N)Cc1ccc(-c2ccccc2)cc1)C(=O)N[C@@H](Cc1ccc(-c2ccccc2)cc1)C(=O)NCCCCNC(N)=O", "note": "[Compound 5]", "MIC": 25},
      {"smiles": "N=C(N)NCCCCNC(=O)[C@H](Cc1ccc(-c2ccccc2)cc1)NC(=O)CN(CCCNC(=N)N)C(=O)[C@@H](N)Cc1ccc(-c2ccccc2)cc1", "note": "[Compound 21]", "MIC": 6.25},
      {"smiles": "CC(=O)N[C@@H](Cc1ccc(-c2ccccc2)cc1)C(=O)N[C@@H](CCCNC(=N)N)C(=O)N[C@@H](Cc1ccc(-c2ccccc2)cc1)C(=O)NCCCCNC(=N)N", "note": "[Compound 23]", "MIC": 12.5},
      {"smiles": "N=C(N)NCCCCNC(=O)[C@H](Cc1ccc(-c2ccccc2)cc1)NC(=O)C[C@H](CCCNC(=N)N)NC(=O)[C@@H](N)Cc1ccc(-c2ccccc2)cc1", "note": "[Compound 20]", "MIC": 6.25},
      {"smiles": "CN(C(=O)[C@H](CCCNC(=N)N)NC(=O)[C@@H](N)Cc1ccc(-c2ccccc2)cc1)[C@@H](Cc1ccc(-c2ccccc2)cc1)C(=O)NCCCCNC(=N)N", "note": "[Compound 18]", "MIC": 6.25},
      {"smiles": "N=C(N)NCCCCNC(=O)[C@H](Cc1ccc(-c2ccccc2)cc1)NC(=O)[C@H](CCCCN)NC(=O)[C@@H](N)Cc1ccc(-c2ccccc2)cc1", "note": "[Compound 13] (H-[Bip]-Lys-[Bip]-Agmatine)", "MIC": 6.25},
      {"smiles": "N=C(N)NCCCCNC(=O)[C@H](Cc1ccc(-c2ccccc2)cc1)NC(=O)[C@H](CCCNC(=N)N)NC(=O)[C@H](N)Cc1ccc(-c2ccccc2)cc1", "note": "[Compound 4]", "MIC": 25},
      {"smiles": "N=C(N)NCCCCNC(=O)[C@H](Cc1ccc2ccccc2c1)NC(=O)[C@H](CCCNC(=N)N)NC(=O)[C@@H](N)Cc1ccc(-c2ccccc2)cc1", "note": "[Compound 9]", "MIC": 50},
      {"smiles": "CC(C)(C)c1ccc(-c2ccc(C[C@H](NC(=O)[C@H](CCCNC(=N)N)NC(=O)[C@@H](N)Cc3ccc(-c4ccc(C(C)(C)C)cc4)cc3)C(=O)NCCCCNC(=N)N)cc2)cc1", "note": "[Compound 26]", "MIC": 12.5},
      {"smiles": "N=C(N)NCCCCNC(=O)[C@H](Cc1ccc(-c2ccccc2)cc1)NC(=O)[C@H](Cc1ccc(NC(=N)N)cc1)NC(=O)[C@@H](N)Cc1ccc(-c2ccccc2)cc1", "note": "[Compound 17] (H-[Bip]-[Phe(4-guanidino)]-[Bip]-Agmatine)", "MIC": 6.25},
      {"smiles": "N=C(N)NCCC[C@H](NC(=O)[C@@H](N)Cc1ccc(-c2ccccc2)cc1)C(=O)N[C@@H](Cc1ccc(-c2ccccc2)cc1)C(=O)N[C@H]1CC[C@@H](NC(=N)N)CC1", "note": "[Compound 6]", "MIC": 6.25},
      {"smiles": "N=C(N)NCCCCNC(=O)[C@H](Cc1ccc(-c2ccccc2)cc1)NC(=O)[C@H](CNC(=N)N)NC(=O)[C@@H](N)Cc1ccc(-c2ccccc2)cc1", "note": "[Compound 16]", "MIC": 25},
      {"smiles": "N=C(N)NCCCCNC(=O)[C@H](Cc1ccc(-c2ccccc2)cc1)NC(=O)[C@H](CCCNC(=N)N)NC(=O)[C@H](Cc1ccc(-c2ccccc2)cc1)NC(=O)C1CCC(=O)N1", "note": "(some centres unmarked) [Compound 24] ([ξpGlu][Bip]R[Bip]-Agmatine)", "MIC": 12.5},
      {"smiles": "C/N=C(/NC)NCCC[C@H](NC(=O)[C@@H](N)Cc1ccc(-c2ccccc2)cc1)C(=O)N[C@@H](Cc1ccc(-c2ccccc2)cc1)C(=O)NCCCCNC(=N)N", "note": "[Compound 15]", "MIC": 12.5},
      {"smiles": "N=C(N)NCCCCNC(=O)[C@H](Cc1ccc(Cl)cc1)NC(=O)[C@H](CCCNC(=N)N)NC(=O)[C@@H](N)Cc1ccc(-c2ccccc2)cc1", "note": "[Compound 12]", "MIC": 12.5},
      {"smiles": "N=C(N)NCCCCNC(=O)[C@@H](Cc1ccc(-c2ccccc2)cc1)NC(=O)[C@H](CCCNC(=N)N)NC(=O)[C@@H](N)Cc1ccc(-c2ccccc2)cc1", "note": "[Compound 2]", "MIC": 12.5},
      {"smiles": "N=C(N)NCCCCNC(=O)[C@H](Cc1ccc(-c2ccccc2)cc1)NC(=O)[C@H](CCCN)NC(=O)[C@@H](N)Cc1ccc(-c2ccccc2)cc1", "note": "[Compound 14] (H-[Bip]-[Orn]-[Bip]-Agmatine)", "MIC": 12.5},
      {"smiles": "N=C(N)NCCCCNC(=O)[C@H](Cc1ccccc1)NC(=O)[C@H](CCCNC(=N)N)NC(=O)[C@@H](N)Cc1ccc(-c2ccccc2)cc1", "note": "[Compound 8] (H-[Bip]-Arg-Phe-Agmatine)", "MIC": 25},
      {"smiles": "N=C(N)NCCC[C@H](NC(=O)[C@@H](N)Cc1ccc(-c2ccccc2)cc1)C(=O)N[C@@H](Cc1ccc(-c2ccccc2)cc1)C(=O)N[C@H]1CC[C@H](NC(=N)N)CC1", "note": "[Compound 7]", "MIC": 6.25},
      {"smiles": "N=C(N)NCCCCNC(=O)[C@H](Cc1ccc(-c2ccccc2)cc1)NC[C@H](CCCNC(=N)N)NC(=O)[C@@H](N)Cc1ccc(-c2ccccc2)cc1", "note": "[Compound 28]", "MIC": 12.5}
    ]},
    {"system": "S. aureus (ATCC 29213)", "experiment": "Bactericidal activity at MIC after dilution of the antibacterial (FIG. 2)", "assay_type": "cell-based, Staphylococcus aureus", "conditions": "treatment at its MIC", "values": [
      {"smiles": "CC(=O)NC[C@H]1CN(c2ccc(N3CCOCC3)c(F)c2)C(=O)O1", "note": "[Linezolid, reference compound]", "mode of action (regrowth after dilution of the antibacterial)": "bacteriostatic"}
    ]}
  ]
}
